Read-outs that look alike come from different tables or passages of the source.
Tests used:
[1] = biological target: T1, human FLT3 protein (FLT3 (WT)) (Homo sapiens, UniProt P36888); test: FLT3 inhibition test (FLT3 enzyme inhibition, time-resolved fluorescence of substrate peptide phosphorylation); assay type: biochemical; details: read-out: FLT3 (WT) enzyme inhibition activity
T1 construct: human FLT3 protein (intracellular region, 564 to 993 aa); GST; purchased Carna Biosciences; host or cells: baculovirus expression system
T1 sequence (P36888 564-993): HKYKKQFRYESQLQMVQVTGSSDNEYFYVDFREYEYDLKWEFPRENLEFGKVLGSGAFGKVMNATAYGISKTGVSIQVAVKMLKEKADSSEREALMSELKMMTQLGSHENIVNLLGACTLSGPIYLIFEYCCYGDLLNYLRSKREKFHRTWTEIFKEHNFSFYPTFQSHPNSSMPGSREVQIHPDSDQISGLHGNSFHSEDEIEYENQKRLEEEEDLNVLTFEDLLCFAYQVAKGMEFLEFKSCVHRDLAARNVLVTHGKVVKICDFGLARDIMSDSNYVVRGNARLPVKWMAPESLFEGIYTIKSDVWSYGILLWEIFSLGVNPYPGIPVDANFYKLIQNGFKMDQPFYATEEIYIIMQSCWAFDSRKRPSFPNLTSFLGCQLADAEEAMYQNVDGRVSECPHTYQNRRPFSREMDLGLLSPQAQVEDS
Outline: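 Substrate peptide phosphorylation detected by time-resolved fluorescence after a 30 min kinase reaction at 25° C with 50 μM ATP (final). Beforehand, compound and FLT3 (WT, 1.2 μg) stood 15 min at 25° C in HEPES buffer pH 7.5 containing MgCl2, NaCl, BSA and DTT.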

MV4-11 cells = test: Leukemia cell proliferation inhibition test (ATPlite), MV4-11; assay type: cell-based; details: Homo sapiens, read-out: MV4-11 cell proliferation inhibition effect
Outline: (§1)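 72 h proliferation, 37° C/5% CO2; 10,000 cells/well, RPMI/10% FBS; ATPlite luminescence (RLU); 0.1% DMSO taken as 0% inhibition; GI50 via sigmoid fit, n=2.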

Molm-13 cells = test: Leukemia cell proliferation inhibition test (ATPlite), Molm-13; assay type: cell-based; details: Homo sapiens, read-out: MOLM13 cell proliferation inhibition effect
Outline: as §1

[2] = GST-fused human FLT3 (564 to 993 aa), ATP 50 μM
[3] = MV4-11, 72 h, MV4-11, 72 hours culture, ATPlite, GI50 per method
[4] = MOLM-13, 72 h, Molm-13, 72 hours culture, ATPlite, GI50 per method

Compound | IC50 [1, 2] | IC50 (MV4-11 cells; [3]) | IC50 (Molm-13 cells; [4]) | IC50 ([1]; FLT3 (WT)) | IC50 (MV4-11 cells; MV4-11, MV4-11 cell) | IC50 (Molm-13 cells; MOLM-13, MOLM13 cell)
CCCNc1nc(Nc2cccc(F)c2)ncc1C#C[C@H]1C[C@@H](NC(=O)[C@H](C)N(C)C(=O)/C=C/CN(C)C)C1 [Compound 13-8, (E)-4-(Dimethylamino)-N—((S)-1-(((1S,3R)-3-((2-((3-fluorophenyl)amino)-4-(propylamino)pyrimidin-5-yl)ethynyl)cyclobutyl)amino)-1-oxopropan-2-yl)-N-methyl-2-butenamide] | < 10 nM | < 10 nM | < 10 nM |  |  | 
CNc1nc(Nc2ccc(C#N)cc2)ncc1C#CCCCNC(=O)[C@@H]1C[C@H](F)CN1C(=O)/C=C/CN(C)C [Compound 7-87, (2S,4S)—N-(5-(2-((4-Cyanophenyl)amino)-4-(methylamino)pyrimidin-5-yl)-4-pentyn-1-yl)-1-((E)-4-(dimethylamino)-2-butenoyl)-4-fluoropyrrolidine-2-carboxamide] | < 10 nM | < 10 nM | < 10 nM |  |  | 
C=CC(=O)NCCNC(=O)c1cnc(NCCc2ccncc2)nc1NCCC [Compound 2-17] | 10 to 100 nM | 100 to 1000 nM | 100 to 1000 nM |  |  | 
CCCNc1nc(Nc2cccc(F)c2)ncc1C#CCCCNC(=O)[C@@H]1CC(F)(F)CN1C(=O)/C=C/CN(C)C [Compound 7-53] | 10 to 100 nM | < 10 nM | < 10 nM |  |  | 
CCCNc1nc(Nc2ccc3c(cnn3CCOC)c2)ncc1C#CCCCNC(=O)[C@H](C)N(C)C(=O)/C=C/CN(C)C [Compound 22-10] |  |  |  | < 10 nM | < 10 nM | < 10 nM
CCCNc1nc(Nc2ccnc(F)c2)ncc1C#C[C@@H]1CCC[C@H](NC(=O)[C@H](C)N(C)C(=O)/C=C/CN(C)C)C1 [Compound 14-1, (E)-4-(dimethylamino)-N—((S)-1-(((1S,3R)-3-((2-((2-fluoropyridin-4-yl)amino)-4-(propylamino)pyrimidin-5-yl)ethynyl)cyclohexyl)amino)-1-oxopropan-2-yl)-N-methyl-2-butenamido] | < 10 nM | < 10 nM | < 10 nM |  |  | 
CNc1nc(Nc2cccc(C#N)c2)ncc1C#C[C@H]1C[C@@H](NC(=O)[C@H](C)N(C)C(=O)/C=C/CN(C)C)C1 [Compound 13-15, (E)-N—((S)-1-(((1S,3R)-3-((2-((3-Cyanophenyl)amino)-4-(methylamino)pyrimidin-5-yl)ethynyl)cyclobutyl)amino)-1-oxopropan-2-yl)-4-(dimethylamino)-N-methyl-2-butenamide] | < 10 nM | < 10 nM | < 10 nM |  |  | 
CNc1nc(Nc2ccc3cn[nH]c3c2)ncc1C#CCCCNC(=O)[C@@H]1CCCN1C(=O)/C=C/CN(C)C [Compound 10-69] | < 10 nM | < 10 nM | < 10 nM |  |  | 
CCCNc1nc(Nc2ccc(C#N)cc2)ncc1C#CCCCNC(=O)[C@@H]1CCCN1C(=O)/C=C/CN(C)C [Compound 7-33, (S,E)-N-(5-(2-((4-Cyanophenyl)amino)-4-(propylamino)pyrimidin-5-yl)-4-pentyn-1-yl)-1-(4-(dimethylamino)-2-butenoyl)pyrrolidine-2-carboxamide] | < 10 nM | < 10 nM | < 10 nM |  |  | 
CCCNc1nc(Nc2ccnc(OC)c2)ncc1C#CCCCNC(=O)CN(C)C(=O)/C=C/CN(C)C [Compound 9-38, (E)-4-(Dimethylamino)-N-(2-((5-(2-((2-methoxypyridin-4-yl)amino)-4-(propylamino)pyrimidin-5-yl)-4-pentyn-1-yl)amino)-2-oxoethyl)-N-methyl-2-butenamide] | < 10 nM | < 10 nM | < 10 nM |  |  | 
CCCNc1nc(Nc2ccc3c(c2)c(N(C)C)nn3C)ncc1C#CCCCNC(=O)[C@H](C)N(C)C(=O)/C=C/CN(C)C [Compound 22-12] |  |  |  | < 10 nM | < 10 nM | < 10 nM
CCCNc1nc(Nc2ccc(C#N)cc2)ncc1C#CCNC(=O)CCCNC(=O)/C=C/CN(C)C [Compound 7-91] | < 10 nM | 100 to 1000 nM | 100 to 1000 nM |  |  | 
CCCNc1nc(NCCc2ccncc2)ncc1C(=O)NCCCNC(=O)CNC(=O)/C=C/CN(C)C [Compound 2-24] | < 10 nM | 10 to 100 nM | 10 to 100 nM |  |  | 

— US9145415B2, “Nitrogen-containing heterocyclic compound or salt thereof” (FUJIFILM Corporation, priority 2012, dated 2015)
